Laboratory results taken from patent publication US20230105457A1, “Immunogenic Compounds For Treatment Of Adrenal Cancer” (ENTEROME S.A., priority 2019, published 2023).

Test system: splenocytes of β/A2/DR3 mice
Experiment: ELISPOT-IFNγ assay on splenocytes of vaccinated β/A2/DR3 mice (Example 2)
Type: in vivo, mouse
Settings: label = vaccination peptide
Excerpt: Briefly, 14 β/A2/DR3 mice were assigned randomly (based on mouse sex and age) to two experimental groups, each immunized with a specific vaccination peptide (vacc-pAg) combined to a common helper peptide (h-pAg) (as outlined in Table 7 below). The vacc-pAg were compared in couples (group 1 vs. group 2). Thereby, both native and optimized versions of a single peptide were compared in each wave.
The animals were immunized on day 0 (d0) with a prime injection, and on d14 with a boost injection. Each mouse was injected s.c. at tail base with 100 μL of an oil-based emulsion that contained: • 100 μg of vacc-pAg (25 μL of 4 mg/mL stock per mouse); • 150 μg of h-pAg (15 μL of 10 mg/mL stock per mouse); • 10 μL of PBS to reach a total volume of 50 μL (per mouse); • Incomplete Freund's Adjuvant (IFA) added at 1:1 (v:v) ratio (50 μL per mouse).
A separate emulsion was prepared for each vacc-pAg, as follows: IFA reagent was added to the vacc-pAg/h-pAg/PBS mixture in a 15 mL tube and mixed on vortex for repeated cycles of 1 min until forming a thick emulsion.
Seven days after the boost injection (i.e. on d21), the animals were euthanized and the spleen was harvested. Splenocytes were prepared by mechanical disruption of the organ followed by 70 μm-filtering and Ficoll density gradient purification.
The splenocytes were immediately used in an ELISPOT-IFNγ assay (Table 8). Experimental conditions were repeated in quadruplets, using 2*105 total splenocytes per well, and were cultured in presence of vacc-pAg (10 μM), Concanavalin A (ConA, 2.5 μg/mL) or medium-only to assess for their capacity to secrete IFNγ. The commercial ELISPOT-IFNγ kit (Diaclone Kit Mujrine IFNγ ELISpot) was used following the manufacturer's instructions, and the assay was performed after about 16 h of incubation.
Spots were counted on a Grand ImmunoSpot® S6 Ultimate UV Image Analyzer interfaced to the ImmunoSpot 5.4 software (CTL-Europe). Data plotting and statistical analysis were performed with the Prism-5 software (GraphPad Software Inc.).
The cell suspensions were also analyzed by flow cytometry, for T cell counts normalization. The monoclonal antibody cocktail (data not shown) was applied on the purified leucocytes in presence of Fc-block reagents targeting murine (1:10 diluted ‘anti-mCD16/CD32 CF11 clone’—internal source) Fc receptors. Incubations were performed in 96-well plates, in the dark and at 4° C. for 15-20 minutes. The cells were washed by centrifugation after staining to remove the excess of monoclonal antibody cocktail, and were re-suspended in PBS for data acquisition.
The data were then normalized as a number of specific spots (the average counts obtained in the ‘medium only’ condition being subtracted) per 10^6 total T cells.
The individual average values (obtained from the quadruplicates) were next used to plot the group average values (see FIG. 3A). As the functional capacity of T cells might vary from individual to individual, the data were also expressed as the percentage of the ConA response per individual (see FIG. 3B).

For “WLPFGFILI [IL13RA2-H, reference compound]”, the “Percentage of ConA-induced response (mean+/−SEM), ELISPOT-IFNγ” value (ex vivo restimulation with IL13RA2-B pAg (10 μM)) was 2.0%+/−0.8 and the “Percentage of ConA-induced response (mean+/−SEM), ELISPOT-IFNγ” value (ex vivo restimulation with IL13RA2-H pAg (10 μM)) was 1.1%+/−0.8.
